In PubChem BioAssay AID179 (DTP/NCI, 2004):
Values joined by “and” are separate entries in the source; they are usually repeats but may differ in a detail not shown here. Identical values can stand only once. Active and inactive are the calls of the source.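 How the source made its calls: active means compounds giving half or more protection of infected cells from virus-caused growth loss, again on retest; inactive means the rest.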 *1 amine or outer side, *2 acyl side, *3 side chain or, on linkers, in order; H or OH if unused. Where a SMILES comes first, the peptide text is derived from it. CO = O=C([*:1])[*:2]

Tested on: CEM cells HIV-1 protection, formazan growth assay
Experiment: NCI AIDS Antiviral Assay
Settings: for IC50: measured here: growth of uninfected CEM cells
Outline: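 Five concentrations of each compound were applied to infected and uninfected human CEM cells. Protection from HIV-1 was judged from growth measured with a soluble formazan assay.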

Compound | EC50 [µM] | IC50 | outcome
Cn1c(=O)c2[nH]c(N/N=N/c3nncs3)nc2n(C)c1=O | > 200 | > 200 µM | 
N=c1nc(N)nc2c3ccccc3nnn12 | > 24.5 | > 24.5 µM | 
O=C(c1ccccc1)c1ccc2cccc(OC3OC(CO)C(O)C(O)C3O)c2n1 (configuration not stated) | > 603 | 316 µM | 
CCCCN=C1OCc2[nH][nH]c(=O)c21 | > 1290 | > 1290 µM | 
CC(=O)NNc1nc(C)c(C(=O)NNC(=O)C(=O)Nc2ccc(C)c(C)c2)s1 | > 170 | 31.6 µM | 
O=c1cc(-c2ccccc2)nc(/C=C(\O)c2ccncc2)n1-c1ccccc1 | > 3.98 | > 3.98 µM | 
CCOP(=O)(OCC)C(N)Cc1ccc(OC)c(OC)c1 (configuration not stated) | > 200 | > 200 µM | 
NC(=S)N/C=C(/c1ccc(Cl)cc1Cl)S(=O)(=O)Cc1ccc(Cl)cc1Cl | > 100 | > 100 µM | 
O=C(/C=C/c1ccc(Cl)cc1)Oc1ccc(/C=C2\CCCCC2=O)cc1 | > 200 | 42.7 µM | 
COc1cc(-c2cc(=O)c3cc(C)c(C)c(C(=O)O)c3o2)cc(OC)c1OC |  |  | inactive
O=C(O)C(=C\c1ccc2c(c1)OCO2)/C(=C/c1ccc2c(c1)OCO2)C(=O)O |  |  | inactive
CCC12C=CCN3CCC4(C(=C(C(=O)OC)[C@@H]1O)Nc1ccccc14)C32 (some centres not stated) | > 141 | 2.34 µM | 
Cc1ccc(S(=O)(=O)C2=Cc3ccccc3C2(O)c2ccccc2)cc1 (configuration not stated) | > 200 | 21.4 µM | 
O=C(NC1CCCCC1NC(c1ccccc1)(c1ccccc1)c1ccccc1)C(=O)NC1CCCCC1NC(c1ccccc1)(c1ccccc1)c1ccccc1 (configuration not stated) | > 100 | > 100 µM | 
O=c1[nH][nH]c(=O)c2nc3c(nc12)c1nc2c(=O)[nH][nH]c(=O)c2nc1c1nc2c(=O)[nH][nH]c(=O)c2nc31 |  |  | inactive
C=C1CCC[C@@H]2[C@@](C)(Cc3cc(O)ccc3O)C(C)CC[C@]12C (some centres not stated) | > 60.3 | 0.708 µM | 
COc1nc(N)c(N=CC(OC(C)=O)C(OC(C)=O)C(COC(C)=O)OC(C)=O)c(=O)n1C (configuration not stated) | > 200 |  | 
CC1CC(=O)C(C(O)CC2CC(=O)N(c3ccccc3)C(=O)C2)C(C)C1 (configuration not stated) | > 200 | > 200 µM | 
C1OC1[C@@H]1CC[C@@H]([C@@H]2CC[C@@H]([C@H]3CO3)O2)O1 (some centres not stated) |  | 39.8 µM | inactive
Cc1cn(C2CC(O)C(CO)C2C)c(=O)[nH]c1=O (configuration not stated) | > 200 | > 200 µM | 
COC(=O)C1(Cc2ccccc2)Cc2ccccc2C1=O (configuration not stated) | > 200 | 85.1 µM | 
c1ccc2c(c1)CCN(C1=NCCO1)C2 | > 200 | 178 µM | 

Compound | EC50 [µM] | IC50 | outcome
O=S(=O)(O)c1cc(N=Nc2cc(S(=O)(=O)O)c3cccnc3c2O)ccc1CCc1ccc(N=Nc2cc(S(=O)(=O)O)c3cccnc3c2O)cc1S(=O)(=O)O | 1.7 | 9.33 µM | 
COC(=O)N/N=C(/CCCC(=O)Nc1cccc([N+](=O)[O-])c1)C(C#N)c1ccc(CC#N)cc1 (configuration not stated) |  |  | inactive
Cc1c(-c2nnc(-c3ccccc3)o2)c(=O)n(-c2ccccc2)n1C | > 200 | > 200 µM | 
C1CCC(N=C2N(C3CCCCC3)C(=NC3CCCCC3)N2C2CCCCC2)CC1 | > 9.12 | > 9.12 µM | 
CN(C)P1(=O)N(c2ccccc2)P(=O)(N(C)C)N1c1ccccc1 (configuration not stated) | > 224 | > 224 µM | 
CCCCCCCC[N+](C)(C)Cc1ccc(C[N+](C)(C)CCCCCCCC)cc1 |  |  | inactive
CC1(O)CC2C(CC1SC1CC3C(CC1(C)O)C3(C)C)C2(C)C (configuration not stated) | > 200 | > 200 µM | 
COC(=O)C1CC23CCCN4CCC5(c6ccccc6N(C=O)C15CC2)C43 (configuration not stated) | > 70.8 | > 70.8 µM | 
Cc1ccc2oc(=O)c(-c3ccccc3)nc2c1 | > 21.9 | > 21.9 µM | 
Cc1cc(C)cc(/C(C#N)=C/c2ccc(N(C)C)cc2)c1 | > 2 | 0.102 µM | 
CC(=O)CCC(=O)C(=[N+]=[N-])S(=O)(=O)c1ccccc1 | > 891 | 151 µM | 
COc1cc(CC(C)=O)cc(OC)c1 | > 200 | 95.5 µM | 
CC(C(=O)O)C1Nc2ccccc2NC1=O (configuration not stated) | > 200 | 83.2 µM | 
O=C(O)Cc1ccc(N2N=C(c3ccccc3)CC2=O)cc1 | > 200 | > 200 µM | 
C/C=C/C=Nc1c(C#N)c2n(c1C(=O)Nc1ccccc1)CCC2 | > 100 | > 100 µM | 
O=S(=O)(c1ccccc1)[C@H]1[C@@H]2O[C@@H]2C[C@@H]1O | > 1050 | 55 µM | 
Brc1cccc(-c2nc3ccccc3[nH]2)c1 | > 132 | 87.1 µM | 
O=C(O)C1CC1 |  |  | inactive
O/N=C1/CCCCC1NO (configuration not stated) | > 200 | 117 µM | 
COC(=O)C(=O)C(C(=O)C(=O)Nc1cccc(C(C)=O)c1)c1nc2ccccc2[nH]c1=O (configuration not stated) | > 575 | 302 µM | 
Cc1ccc(N=C(SSC(Cl)(Cl)Cl)SSC(Cl)(Cl)Cl)cc1 |  |  | inactive
N#[N+]C1=NC2C(=O)NC=NC2=N1 (configuration not stated) | > 83.2 | > 83.2 µM | 

Compound | EC50 [µM] | IC50 | outcome
COc1ccccc1/C=C(\C#N)C(=O)c1ccccc1 | > 20 | > 20 µM | 
O=C(/C=C\c1ccc(-c2ccccc2)cc1)c1cccs1 | > 200 | 11.2 µM | 
Cc1cc(Cl)cc2c1NC(=O)C2(O)C(C(=O)c1ccccc1)c1ccccc1 (configuration not stated) | > 91.2 | > 91.2 µM | 
COc1cc2c(cc1OC)C(c1ccccc1CCCCl)=NCC2 | > 200 | 75.9 µM | 
C=CCOCn1cc(F)c(=O)[nH]c1=O | > 200 | > 200 µM | 
CC12CP(=O)(c3ccccc3)CC1C2(Cl)Cl (configuration not stated) |  |  | inactive
CCOC(=O)C(Cl)(Cl)/S(=N\S(=O)(=O)c1ccccc1)NC(=O)c1ccccc1 (configuration not stated) | > 200 | > 200 µM | 
O=c1c(-c2ccccc2)c(S)sc(S)c1-c1ccccc1 | > 200 | > 200 µM | 
c1c2c(cc3c1OCN(C1CC1)C3)OCN(C1CC1)C2 | > 51.3 | 4.27 µM | 
Clc1ccc(-c2onc3ccc(Br)cc23)cc1 | > 162 | > 162 µM | 
CCCCc1ccc(Nc2nc3c(ncn3C3CC(O)C(CN=[N+]=[N-])O3)c(=O)[nH]2)cc1 (configuration not stated) | > 200 | > 200 µM | 
O=C1OCCOCCSCCOCCOC(=O)c2cccc1n2 | > 537 | 37.2 µM | 
S=C=NC/C(Cl)=C/Cl | > 200 | 129 µM | 
C=CCCN(C=O)CCC/C(=C/CCCC)[Si](C)(C)C | > 24.5 | > 24.5 µM | 
O=C(O)C12C=CC(C1)c1ccccc12 (configuration not stated) | > 251 | > 251 µM | 
CC(=O)OCC(OC(C)=O)C(OC(C)=O)C(OC(C)=O)C(=O)CNn1c(-c2ccc(C)cc2)nc2ccccc2c1=O (configuration not stated) |  |  | inactive
c1csc(-c2ccc(-c3ccc(-c4ccc(-c5cccs5)s4)s3)s2)c1 | > 200 | > 200 µM | 
CCN(CC)C(=O)c1cccc2c(OC)ccc(OC)c12 |  |  | inactive
Cc1cnc2c(Nc3ccc(Cl)cc3)cc(N)nc2n1 | > 120 | 4.47 µM | 
O=C1CC(c2ccc(O)cc2)Oc2cc(O)cc(O)c21 (configuration not stated) | > 200 | > 100 µM and 87.1 µM | 
CCCC(O)[C@@H](O)c1ccc2c(c1O)C(=O)c1c(OC)cccc1C2=O (some centres not stated) |  |  | inactive
Oc1cc(CN2CCOCCOCCOCCOCC2)c(O)cc1CN1CCOCCOCCOCCOCC1 | > 437 | 13.2 µM | 

Compound | EC50 [µM] | IC50 | outcome
CC(NNC(=O)c1ccncc1)c1ccc(Cl)c(Cl)c1 (configuration not stated) | > 200 | 107 µM | 
COc1ccc(-c2cc3c(nn2)-c2ccccc2C3=O)cc1 | > 100 | > 100 µM | 
CC(=O)OC1C[C@H]2C(OC(=O)c3ccccc3)C3C4(OC(C)=O)COC4C[C@H](OC(C)=O)[C@@]3(C)C(OC(C)=O)[C@H](OC(C)=O)C(=C1C)C2(C)C (some centres not stated) | > 35.5 | > 35.5 µM | 
Cc1cc(O)c(/C=N/C(=S)Nc2ccccc2)c(=O)o1 | > 200 | > 200 µM | 
N#CCCN(CCC#N)c1ccc(/C=C2\CC(O)(c3ccccc3)NC2=O)cc1 (configuration not stated) | > 7.08 | > 7.08 µM | 
CC(=O)OCC1OC(N2C(=O)[C@H](Oc3ccccc3)[C@@H]2c2ccccc2)C(OC(C)=O)C(OC(C)=O)C1OC(C)=O (some centres not stated) | > 100 | > 100 µM | 
COC(=O)[C@H](Cc1ccccc1)NC(=O)N[C@@H](C)C(=O)N[C@H](C(=O)N[C@H](C=O)Cc1ccccc1)C(C)C ({OMe-Phe-CO}-Ala-Val-Phe-aldehyde) | > 200 | 4.79 µM | 
COc1cccc(NC(=O)CC(=O)Nc2cccc(OC)c2)c1 | > 200 | > 200 µM | 
CC(SS(=O)(=O)O)C(N)=NCc1ccccc1 (configuration not stated) | > 200 | 67.6 µM | 
COc1cc(OC)cc(OCc2nc3cc(C(F)(F)F)ccc3nc2-c2ccccc2)c1 | > 200 | 52.5 µM | 
C[C@]12CC[C@H]3[C@@H](CC[C@]4(O)C[C@@H](O)CC[C@]34C=O)[C@@]1(O)CC[C@@H]2C1=CC(=O)OC1 | > 2 | 0.24 µM | 
CCN(CC)CSc1nc2ccccc2[nH]1 |  |  | inactive
CCCC(O)CNCc1ccc(N(C)C)cc1 (configuration not stated) |  |  | inactive
CC1(C)CCCOc2ccc(C(=O)O)cc21 | > 200 | > 200 µM | 
O=C1C(c2ccccc2)=C(c2ccccc2)C(c2ccc(Sc3ccc(C4=C(c5ccccc5)C(=O)C(c5ccccc5)=C4c4ccccc4)cc3)cc2)=C1c1ccccc1 | > 1.82 | > 1.82 µM | 
CCOc1cc2c(cc1O)/C(=N/NS(=O)(=O)c1ccc(C)cc1)C[C@@H]1[C@@H]2CC[C@]2(C)[C@@H](O)CC[C@@H]12 | > 200 | 0.229 µM | 
Nc1nc(Cl)c2ncn(C3CC=C(CO)CC3)c2n1 (configuration not stated) | > 891 | 51.3 µM | 
O=P1(N(CCCl)CCCl)NCCCO1 (configuration not stated) | > 955 | 302 µM | 
c1ccc(CCN(CCc2ccccn2)CCc2ccccn2)nc1 | > 200 | > 100 µM | 
CC1OC(c2ccccc2)=CC(OCc2ccccc2)[C@H]1OCc1ccccc1 (some centres not stated) | > 200 | 91.2 µM | 
COc1ccc(Nc2ccc3c4c(cccc24)C(=O)N(c2ccc(OC)cc2)C3=O)cc1 | > 200 | 31.6 µM | 
COc1ccc(N=Cc2cc(OC)c(OC)c(OC)c2)cc1 | > 33.1 | > 33.1 µM | 
